# Tested on: antral portion of the stomach
# Assay: Gastric contractility: distance between transducing crystals on the antral stomach
# Format: in vivo, Sprague-Dawley rats
# Conditions: urethane-anesthetized rats
# Excerpt: Two male Sprague-Dawley rats, approximately 12 weeks old (Harlan, Indianapolis, Ind.) are anesthetized with urethane and their stomachs are exposed through a small abdominal incision. Two 2.4 mm transducing crystals (Sonometrics, Ontario, Canada) are placed on the antral portion of the stomach such that circular contractions could be monitored as a change in the distance between the two crystals. The crystals are attached with VETBOND TISSUE ADHESIVE (3M, St. Paul, Minn.). […] The amplitude of the NE-induced decrease is approximately 50% of the acetylcholine-induced increase in distance. Both responses are transient. A negative control of 10 μl of phosphate buffer solution (PBS) applied topically between the crystals has no effect. […] The ZS33LP at 1 μg induces a sustained, rhythmic increase and decrease in crystal distance.
smiles,measurement,setting,value
NC[C@H](O)c1ccc(O)c(O)c1 [norepinephrine],change in the distance between the two crystals (circular contractions),10 μl of 1 μM applied topically to the stomach between the crystals,reduction in the distance between the two crystals
same,amplitude of the NE-induced decrease relative to the acetylcholine-induced increase in distance,10 μl of 1 μM applied topically,approximately 50%

# Source: patent US7655447B2, “ZSIG33-like polynucleotides” (ZymoGenetics, Inc., priority 2000, dated 2010)
